Common to all, as to assay type: cell-based
Assay [1] deals with IL-6. Kind of assay: IL-6 expression in UVB-irradiated HaCaT human keratinocytes (ELISA), Example 6. Conditions: for IL-6 expression (% of control) Average: UVB +; for IL-6 expression (% of control) Average / expression of IL-6 (Table 7, single component vs complex composition): Con(−) = 100; for reduction of expression of IL-6 compared to Con(−): after UVB irradiation; for expression of IL-6 (Table 7, single component vs complex composition): UVB 20 mJ/cm^2. As for the experimental part:
In order to identify the synergistic anti-inflammation relieving effect of the SPMs complex composition, the complex compositions (Complexes 1 to 3) of 17-HDHA, Resolvin D5, and Protectin DX and each SPM single material were treated with HaCaT cells, which are human keratinocytes to identify changes in IL-6 expression.
Specifically, first, human keratinocytes were aliquoted in a 48-well plate at a concentration of 4×10^4 cells/well and cultured at 5% CO2, 37° C. for 24 hours, and then the medium was removed and the starvation state was maintained with DMEM Serum Free media for 24 hours.
The SPMs complex composition was diluted with DMEM (FBS 2%) to make 0.5, 1, 2, and 5 μg/ml, and then cultured as above and treated with human keratinocytes from which the medium was removed for 1 hour. […] In addition, after collecting the medium, the amount of IL-6 was measured using Human IL-6 DuoSet ELISA (R&D system). The cells adhering to the bottom were washed with DPBS, dissolved with 1N NaOH, and the amount of protein was measured through BCA analysis to measure the amount of IL-6 synthesized per a given protein. In this connection, the IL-6 expression inhibitory effect of the SPMs complex composition of the present invention and each single component was identified by using a case in which nothing was treated as Con(−) and a case in which 10 μM of hydrocortisone was treated as Con(+) after UVB irradiation.
For orientation: ELISA stands for enzyme-linked immunosorbent assay.

Another assay deals with procollagen. Briefly: Procollagen synthesis in human dermal fibroblasts (PIP EIA), Example 7. The note with it: for Procollagen synthesis (% of control) Average: 24 hours; for Procollagen synthesis (% of control) Average / amount of procollagen (Table 10, single component vs complex composition): untreated control = 100; for amount of procollagen compared to untreated control group: single components, Table 8 concentrations; for amount of procollagen (Table 10, single component vs complex composition): concentration not given in Table 10; for amount of procollagen compared to positive control group (50 μM of retinyl palmitate): at a concentration of 1 μg/ml or more. An excerpt: Collagen, a major component of the extracellular matrix, is synthesized in the form of a precursor called procollagen. The procollagen is known to be cut and isolated from collagen molecules when a polymerization reaction occurs. By measuring the amount of procollagen, the degree of collagen biosynthesis in the cells may be estimated.
[…] In this connection, the effect of the SPM single component and its complex compositions (compositions 1 to 3) was identified by using a case in which nothing was treated as an untreated control group and a case in which 50 μM of retinyl palmitate was treated as Con(+).

Assay [2] has as its system TNF-α. Briefly: TNF-α expression inhibition in UVB-irradiated human keratinocytes, Example 9. Conditions: 10 μM; UVB 160 mJ/cm^2; 24 hours. How it is done: Specifically, human keratinocytes were aliquoted in a 48-well plate at a concentration of 4×10^4 cells/well and cultured for 24 hours at 5% CO2 and 37° C., then the medium was removed and starvation state was maintained with DMEM Serum Free media for 24 hours.
The composition 2 was diluted with DMEM (2% FBS) to make 0.5, 1, 2, and 5 μg/ml, and then cultured as above and treated with human keratinocytes from which the medium was removed for 1 hour. Then, for TNF-α expression, the medium was exchanged with 250 μl of DPBS (WelGENE), irradiated with 160 mJ/cm^2 of UVB, and then treated with the SPMs again and cultured for 24 hours. In addition, after collecting the medium, the amount of TNF-α was measured using Human TNF-α DuoSet ELISA (R&D system), respectively. The cells adhering to the bottom were washed with DPBS, dissolved with 1N NaOH, and the amount of protein was measured through BCA analysis to measure the amount of TNF-α synthesized per a given protein. In this connection, the effect of the SPMs complex composition was identified by using a case in which nothing was treated as a negative control group and a case in which 10 μM of hydrocortisone was treated as a positive control group.

Assay [3] relates to TNF-α. Kind of assay: TNF-α expression inhibition in UVB-irradiated human keratinocytes (ELISA), Example 4-2. Conditions: 10 ppm; UVB 160 mJ/cm^2; 24 hours. As for the experimental part: (§1) Human keratinocytes were aliquoted in a 48-well plate at a concentration of 4×10^4 cells/well and cultured for 24 hours at 5% CO2 and 37° C., then the medium was removed and starvation state was maintained with DMEM Serum Free media for 24 hours.
(§2) The SPM 1 and SPM 2 were diluted with DMEM (2% FBS) to make 1 ppm, and then diluted sequentially to 0.1, 0.01 and 0.001 ppm, and then cultured as above and treated with human keratinocytes from which the medium was removed for 1 hour. Then, for TNF-α or IL-6 expression, the medium was exchanged with 250 μl of DPBS (WelGENE), irradiated with 160 mJ/cm^2 of UVB, and then treated with the SPM 1 and SPM 2 again and cultured for 24 hours. In addition, after collecting the medium, the amount of TNF-α was measured using Human TNF-α DuoSet ELISA (R&D system), and the amount of IL-6 was measured using Human IL-6 DuoSet ELISA (R&D system), respectively. The cells adhering to the bottom were washed with DPBS, dissolved with 1N NaOH, and the amount of protein was measured through BCA analysis to measure the amount of TNF-α or IL-6 synthesized per a given protein. In this connection, the effect of the two reaction products SPM 1 and SPM 2 was identified by using a case in which nothing was treated as a negative control group and a case in which 10 ppm of dexamethasone was treated as a positive control group.

Assay [4] has as its system IL-6. Kind of assay: IL-6 expression inhibition in UVB-irradiated human keratinocytes (ELISA), Example 4-2. The note with it: 10 ppm; UVB 160 mJ/cm^2; 24 hours. As for the experimental part: as §1, §2
Assay [5] concerns MMP-1. Briefly: Collagenase (MMP-1) expression inhibition in UVB-irradiated human dermal fibroblasts (ELISA), Example 4-4. Conditions: 6 ppm; UVB 100 mJ/cm^2; 48 hours. As for the experimental part:
(§3) MMPs (matrix metalloproteinases) are enzymes with proteolytic activity, and by decomposing proteins constituting the extracellular matrix, they have an important effect on the binding of cells and proteins constituting the extracellular matrix. There are 28 types of MMPs, of which MMP-1 is an enzyme that decomposes collagen. In this example, the expression level of MMP-1 in cells was identified.
After culturing human dermal fibroblasts for 24 hours, the medium was exchanged with DPBS (WelGENE) at a concentration of 250 μl/well, and irradiated with 100 mJ/cm^2 of UVB. Then, the SPM 1 and SPM 2 were treated with DMEM (2% FBS) diluted to a concentration of 0.01, 0,1 and 1 ppm, respectively, and cultured for 48 hours. After collecting the cultured cell medium, the amount of MMP-1 was measured using a human total MMP-1 ELISA kit (R&D systems, DY901). At this connection, the effect of the two reaction products SPM 1 and SPM 2 was identified by using a case in which nothing was treated as a negative control group and a case in which 6 ppm of retinoic acid was treated as a positive control group.

In assay [6] the test system is MMP-1. Kind of assay: Collagenase (MMP-1) expression inhibition in UVB-irradiated human dermal fibroblasts, Example 8. Conditions: 20 μM; UVB 100 mJ/cm^2; 48 hours. As for the experimental part: as §3
Specifically, after culturing human dermal fibroblasts for 24 hours, the medium was exchanged with DPBS (WelGENE) at a concentration of 250 μl/well, and irradiated with 100 mJ/cm^2 of UVB. Then, the composition 2 was treated with DMEM (2% FBS) diluted to a concentration of 0.1, 1, 2, and 5 ppm, respectively, and cultured for 48 hours. After collecting the cultured cell medium, the amount of MMP-1 was measured using a human total MMP-1 ELISA kit (R&D systems, DY901). At this connection, the effect of composition 2 was identified by using a case in which nothing was treated as a negative control group and a case in which 20 μM of retinoic acid was treated as a positive control group.

“And” between values parts separate entries of the source, which are not always exact repeats. Identical values can stand only once.

`CC/C=C\CC(O)/C=C/C=C\C/C=C\C/C=C\C/C=C\CCC(=O)O` (racemic) [Composition 17S-HDHA, (±) 17-hydroxy (dihydroxy)-4Z, 7Z, 10Z, 13Z, 15E, 19Z-docosahexaenoic acid]: the “IL-6 expression (% of control) Average” value was 89.63 % of control in the assay with IL-6 [1] (0.1 μg/ml), 83 % of control in the assay with IL-6 [1] (1 μg/ml), 89.17 % of control in the assay on IL-6 [1] (2 μg/ml) and 81.66 % of control in the assay on IL-6 [1] (5 μg/ml). Also, in the assay with IL-6 [1] (2 μg/ml), the “reduction of expression of IL-6 compared to Con(−)” value (shortened to “reduction of expression … to Con(−)”) was 10.8%. The “expression of IL-6 (Table 7, single component vs complex composition)” value in the assay with IL-6 [1] (2 μg/ml) worked out at 89.17. Also, the “Procollagen synthesis (% of control) Average” value in the assay on procollagen (0.01 μg/ml) is given as 212.76 % of control; in the assay on procollagen (0.1 μg/ml) it was 237.76 % of control; in the assay with procollagen (1 μg/ml), 235.8 % of control; in the assay with procollagen (2 μg/ml), 255.32 % of control. In addition, the “amount of procollagen compared to untreated control group” value in the assay with procollagen was “greater amount of procollagen than the untreated control group”. Also, in the assay on procollagen, the “amount of procollagen (Table 10, single component vs complex composition)” value is given as 255.32.
For `C[C@]12CCC(=O)C=C1CC[C@@H]1[C@@H]2[C@@H](O)C[C@@]2(C)[C@H]1CC[C@]2(O)C(=O)CO` [Con(+) H.C., hydrocortisone, reference compound], the “IL-6 expression (% of control) Average” value with IL-6 [1] (10 μM) was 31.23 % of control and 42.82 % of control. Moreover, the “reduction of UVB-increased expression of TNF-α” value in the assay on TNF-α [2] was “about 52%”.
For `CCCCCCCCCCCCCCCC(=O)OC/C=C(C)/C=C/C=C(C)/C=C/C1=C(C)CCCC1(C)C` [Con(+) R.P., retinyl palmitate, reference compound], the “Procollagen synthesis (% of control) Average” value with procollagen (50 μM) was 249.88 % of control and 240.2 % of control.
Consider `CC/C=C\C[C@H](O)/C=C/C=C\C=C\[C@@H](O)C/C=C\C/C=C\CCC(=O)O` [PDX, 10S, 17S-dihydroxy-4Z,7Z,11E,13Z,15E,19Z-docosahexaenoic acid], for which the “IL-6 expression (% of control) Average” value is given as 95.36 % of control in the assay on IL-6 [1] (0.1 μg/ml), 102.69 % of control with IL-6 [1] (1 μg/ml), 88.13 % of control in the assay with IL-6 [1] (2 μg/ml) and 86.72 % of control in the assay on IL-6 [1] (5 μg/ml). Besides, in the assay with IL-6 [1] (2 μg/ml), the “reduction of expression … to Con(−)” value is given as 11.8%. Further, in the assay on IL-6 [1] (2 μg/ml), the “expression of IL-6 (Table 7, single component vs complex composition)” value was 88.13. The “Procollagen synthesis (% of control) Average” value in the assay with procollagen (0.01 μg/ml) is 237.15 % of control; in the assay with procollagen (0.1 μg/ml), 244.1 % of control; with procollagen (1 μg/ml), 251.41 % of control; in the assay on procollagen (2 μg/ml), 254.1 % of control. Besides, in the assay on procollagen, the “amount of procollagen compared to positive control group (50 μM of retinyl palmitate)” value is “greater amount of procollagen was identified compared to the positive control group”. Further, in the assay with procollagen, the “amount of procollagen compared to untreated control group” value is given as “greater amount of procollagen than the untreated control group”. Moreover, in the assay with procollagen, the “amount of procollagen (Table 10, single component vs complex composition)” value worked out at 254.1.
Take `CC/C=C\C[C@H](O)/C=C/C=C\C/C=C\C=C\[C@@H](O)C/C=C\CCC(=O)O` [RvD5, 7S, 17S-dihydroxy-4Z, 8E, 10Z, 13Z, 15E, 19Z-docosahexaenoic acid]: the “IL-6 expression (% of control) Average” value in the assay on IL-6 [1] (0.1 μg/ml) is recorded as 99.58 % of control; with IL-6 [1] (1 μg/ml), 109.86 % of control; with IL-6 [1] (2 μg/ml) it was 99.49 % of control; in the assay with IL-6 [1] (5 μg/ml) it was 83.38 % of control. Further, the “reduction of expression … to Con(−)” value in the assay with IL-6 [1] (2 μg/ml) is listed as 0.5%. In addition, in the assay with IL-6 [1] (2 μg/ml), the “expression of IL-6 (Table 7, single component vs complex composition)” value is 99.49. The “Procollagen synthesis (% of control) Average” value in the assay with procollagen (0.01 μg/ml) is 245.68 % of control; with procollagen (0.1 μg/ml) it was 248 % of control; in the assay on procollagen (1 μg/ml), 249.34 % of control; in the assay on procollagen (2 μg/ml) it was 255.32 % of control. For the same compound, in the assay with procollagen, the “amount of procollagen compared to positive control group (50 μM of retinyl palmitate)” value was “greater amount of procollagen was identified compared to the positive control group”. Also, the “amount of procollagen compared to untreated control group” value in the assay on procollagen is “greater amount of procollagen than the untreated control group”. For the same compound, in the assay on procollagen, the “amount of procollagen (Table 10, single component vs complex composition)” value was found to be 255.32.
In the case of `C[C@@H]1C[C@H]2[C@@H]3CCC4=CC(=O)C=C[C@]4(C)[C@@]3(F)[C@@H](O)C[C@]2(C)[C@@]1(O)C(=O)CO` [dexamethasone], the “reduction of UVB-increased expression of TNF-α” value in the assay with TNF-α [3] is given as “about 35%”. The “reduction of UVB-increased expression of IL-6” value with IL-6 [4] is given as “about 88%”.
Consider `CC1=C(/C=C/C(C)=C/C=C/C(C)=C/C(=O)O)C(C)(C)CCC1` [retinoic acid], for which the “reduction of UVB-increased expression of MMP-1” value with MMP-1 [5] and in the assay on MMP-1 [6] was “about 70%” throughout.

Values taken from patent US20240000680A1, “MONO-HYDROXY OR DI-HYDROXY DERIVATIVES OF POLYUNSATURATED FATTY ACIDS, PRODUCTION METHOD THEREFOR, AND USE THEREOF” (KOLON INDUSTRIES, INC., priority 2019, published 2024).
